From ChEMBL document CHEMBL4507290 (2021)

How the values were obtained:
[1] = target: Serine/threonine-protein kinase Chk1 (Homo sapiens) (UniProt O14757); settings: Compound concentration 1000.0 nM
[2] = target: Mitotic checkpoint serine/threonine-protein kinase BUB1 (Homo sapiens) (UniProt O43683); settings: Compound concentration 1000.0 nM
[3] = tested on: Tyrosine-protein kinase ABL1 (Homo sapiens), P00519 [H396P]; settings: Compound concentration 1000.0 nM
[4] = target: Serine/threonine-protein kinase Nek10 (Homo sapiens) (UniProt Q6ZWH5); settings: Compound concentration 1000.0 nM
[5] = target: Cyclin-dependent kinase-like 3 (Homo sapiens) (UniProt Q8IVW4); settings: Compound concentration 1000.0 nM
[6] = target: Dual specificity testis-specific protein kinase 1 (Homo sapiens) (UniProt Q15569); settings: Compound concentration 1000.0 nM
[7] = target: Mast/stem cell growth factor receptor Kit (Homo sapiens) (UniProt P10721); settings: Compound concentration 1000.0 nM
[8] = target: Interferon-induced, double-stranded RNA-activated protein kinase (Homo sapiens) (UniProt P19525); settings: Compound concentration 1000.0 nM
[9] = tested on: Tyrosine-protein kinase ABL1 (Homo sapiens), P00519 [T315I]; settings: Compound concentration 1000.0 nM
[10] = target: Mitogen-activated protein kinase kinase kinase 11 (Homo sapiens) (UniProt Q16584); settings: Compound concentration 1000.0 nM
[11] = target: Leukocyte tyrosine kinase receptor (Homo sapiens) (UniProt P29376); settings: Compound concentration 1000.0 nM
[12] = target: Phosphatidylinositol 4-phosphate 3-kinase C2 domain-containing subunit beta (Homo sapiens) (UniProt O00750); settings: Compound concentration 1000.0 nM
[13] = target: Serine/threonine-protein kinase MARK1 (Homo sapiens) (UniProt Q9P0L2); settings: Compound concentration 1000.0 nM
[14] = target: MAP kinase-interacting serine/threonine-protein kinase 2 (Homo sapiens) (UniProt Q9HBH9); settings: Compound concentration 1000.0 nM
[15] = tested on: Mast/stem cell growth factor receptor Kit (Homo sapiens), P10721 [V559D,T670I]; settings: Compound concentration 1000.0 nM
[16] = target: Tyrosine-protein kinase Yes (Homo sapiens) (UniProt P07947); settings: Compound concentration 1000.0 nM
[17] = target: Ribosomal protein S6 kinase alpha-3 (Homo sapiens) (UniProt P51812); settings: Compound concentration 1000.0 nM
[18] = target: Cyclin-dependent kinase 14 (Homo sapiens) (UniProt O94921); settings: Compound concentration 1000.0 nM
[19] = target: Mitogen-activated protein kinase kinase kinase 9 (Homo sapiens) (UniProt P80192); settings: Compound concentration 1000.0 nM
[20] = target: Insulin receptor (Homo sapiens) (UniProt P06213); settings: Compound concentration 1000.0 nM
[21] = target: Serine/threonine-protein kinase PLK3 (Homo sapiens) (UniProt Q9H4B4); settings: Compound concentration 1000.0 nM
[22] = target: Uncharacterized serine/threonine-protein kinase SBK3 (Homo sapiens) (UniProt P0C264); settings: Compound concentration 1000.0 nM
[23] = tested on: Receptor-type tyrosine-protein kinase FLT3 (Homo sapiens), P36888 [UNDEFINED MUTATION]; settings: Compound concentration 1000.0 nM
[24] = target: Serine/threonine-protein kinase D1 (Homo sapiens) (UniProt Q15139); settings: Compound concentration 1000.0 nM
[25] = target: Casein kinase II subunit alpha' (Homo sapiens) (UniProt P19784); settings: Compound concentration 1000.0 nM
[26] = target: Angiopoietin-1 receptor (Homo sapiens) (UniProt Q02763); settings: Compound concentration 1000.0 nM
[27] = tested on: Mast/stem cell growth factor receptor Kit (Homo sapiens), P10721 [A829P]; settings: Compound concentration 1000.0 nM
[28] = target: Hormonally up-regulated neu tumor-associated kinase (Homo sapiens) (UniProt P57058); settings: Compound concentration 1000.0 nM
[29] = tested on: Receptor-type tyrosine-protein kinase FLT3 (Homo sapiens), P36888 [R834Q]; settings: Compound concentration 1000.0 nM
[30] = target: Cyclin-dependent kinase 18 (Homo sapiens) (UniProt Q07002); settings: Compound concentration 1000.0 nM
[31] = target: Fibroblast growth factor receptor 1 (Homo sapiens) (UniProt P11362); settings: Compound concentration 1000.0 nM
[32] = target: Serine/threonine-protein kinase PLK4 (Homo sapiens) (UniProt O00444); settings: Compound concentration 1000.0 nM
[33] = target: Vascular endothelial growth factor receptor 3 (Homo sapiens) (UniProt P35916); settings: Compound concentration 1000.0 nM
[34] = target: Calcium/calmodulin-dependent protein kinase type II subunit gamma (Homo sapiens) (UniProt Q13555); settings: Compound concentration 1000.0 nM
[35] = target: Cyclin-dependent kinase 3 (Homo sapiens) (UniProt Q00526); settings: Compound concentration 1000.0 nM
[36] = target: Phosphorylase b kinase gamma catalytic chain, skeletal muscle/heart isoform (Homo sapiens) (UniProt Q16816); settings: Compound concentration 1000.0 nM
[37] = target: Interleukin-1 receptor-associated kinase 3 (Homo sapiens) (UniProt Q9Y616); settings: Compound concentration 1000.0 nM
[38] = target: Ribosomal protein S6 kinase alpha-2 (Homo sapiens) (UniProt Q15349); settings: Compound concentration 1000.0 nM
[39] = target: Homeodomain-interacting protein kinase 4 (Homo sapiens) (UniProt Q8NE63); settings: Compound concentration 1000.0 nM
[40] = target: Serine/threonine-protein kinase NLK (Homo sapiens) (UniProt Q9UBE8); settings: Compound concentration 1000.0 nM
[41] = target: Cyclin-dependent kinase-like 5 (Homo sapiens) (UniProt O76039); settings: Compound concentration 1000.0 nM
[42] = target: 5-hydroxytryptamine receptor 2C (Homo sapiens) (UniProt P28335); settings: Compound concentration 10.0 uM
[43] = target: Serine/threonine-protein kinase RIO3 (Homo sapiens) (UniProt O14730); settings: Compound concentration 1000.0 nM
[44] = target: Casein kinase I isoform gamma-2 (Homo sapiens) (UniProt P78368); settings: Compound concentration 1000.0 nM
[45] = target: Cyclin-G-associated kinase (Homo sapiens) (UniProt O14976); settings: Compound concentration 1000.0 nM

Serine/threonine-protein kinase PLK4 (Homo sapiens), sequence (O00444 whole entry): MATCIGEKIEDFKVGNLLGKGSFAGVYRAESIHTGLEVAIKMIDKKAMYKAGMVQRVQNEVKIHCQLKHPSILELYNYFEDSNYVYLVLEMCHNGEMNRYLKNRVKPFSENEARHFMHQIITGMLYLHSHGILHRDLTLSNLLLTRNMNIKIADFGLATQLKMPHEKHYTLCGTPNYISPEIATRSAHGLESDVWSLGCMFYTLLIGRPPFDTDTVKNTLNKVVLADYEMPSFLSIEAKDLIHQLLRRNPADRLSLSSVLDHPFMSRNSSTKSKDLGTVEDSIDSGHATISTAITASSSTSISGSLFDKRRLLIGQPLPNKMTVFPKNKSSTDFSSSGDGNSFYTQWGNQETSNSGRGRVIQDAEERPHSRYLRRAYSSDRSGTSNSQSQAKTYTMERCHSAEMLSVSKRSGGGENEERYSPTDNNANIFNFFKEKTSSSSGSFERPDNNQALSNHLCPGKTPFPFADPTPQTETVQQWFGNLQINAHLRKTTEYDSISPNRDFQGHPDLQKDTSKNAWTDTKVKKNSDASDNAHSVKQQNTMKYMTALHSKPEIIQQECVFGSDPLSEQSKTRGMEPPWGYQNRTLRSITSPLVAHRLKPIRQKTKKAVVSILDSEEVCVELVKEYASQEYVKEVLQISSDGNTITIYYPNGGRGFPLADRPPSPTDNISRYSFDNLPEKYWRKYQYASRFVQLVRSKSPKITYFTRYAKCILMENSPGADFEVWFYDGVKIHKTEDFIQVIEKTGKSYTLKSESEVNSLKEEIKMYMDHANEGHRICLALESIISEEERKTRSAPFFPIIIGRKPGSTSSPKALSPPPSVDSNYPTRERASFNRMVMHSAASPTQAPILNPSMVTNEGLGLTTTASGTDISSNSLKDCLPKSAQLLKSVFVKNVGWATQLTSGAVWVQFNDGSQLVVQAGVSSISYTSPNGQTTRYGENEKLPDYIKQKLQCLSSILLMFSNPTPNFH
Cyclin-dependent kinase 3 (Homo sapiens), sequence (Q00526 whole entry, looked up, canonical isoform): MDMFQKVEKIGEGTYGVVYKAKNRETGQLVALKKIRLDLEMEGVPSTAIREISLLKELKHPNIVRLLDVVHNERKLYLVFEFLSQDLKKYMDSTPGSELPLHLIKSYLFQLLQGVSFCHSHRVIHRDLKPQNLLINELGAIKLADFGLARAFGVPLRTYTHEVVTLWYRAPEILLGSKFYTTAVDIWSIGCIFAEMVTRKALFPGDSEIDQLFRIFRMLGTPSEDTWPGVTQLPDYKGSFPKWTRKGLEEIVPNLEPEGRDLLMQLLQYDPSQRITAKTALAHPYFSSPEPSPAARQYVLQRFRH
Casein kinase II subunit alpha' (Homo sapiens), sequence (P19784 whole entry, looked up): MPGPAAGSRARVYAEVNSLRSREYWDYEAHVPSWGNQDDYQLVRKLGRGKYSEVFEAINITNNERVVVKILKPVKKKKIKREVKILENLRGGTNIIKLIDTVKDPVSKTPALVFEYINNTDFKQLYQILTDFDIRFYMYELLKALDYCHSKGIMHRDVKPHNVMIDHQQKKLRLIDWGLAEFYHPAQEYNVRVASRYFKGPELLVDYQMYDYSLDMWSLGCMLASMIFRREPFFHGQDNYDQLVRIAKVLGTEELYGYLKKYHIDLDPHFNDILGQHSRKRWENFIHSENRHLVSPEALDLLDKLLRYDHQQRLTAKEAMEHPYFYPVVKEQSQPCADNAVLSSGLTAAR
Insulin receptor (Homo sapiens), sequence (P06213 28-758 limits assumed): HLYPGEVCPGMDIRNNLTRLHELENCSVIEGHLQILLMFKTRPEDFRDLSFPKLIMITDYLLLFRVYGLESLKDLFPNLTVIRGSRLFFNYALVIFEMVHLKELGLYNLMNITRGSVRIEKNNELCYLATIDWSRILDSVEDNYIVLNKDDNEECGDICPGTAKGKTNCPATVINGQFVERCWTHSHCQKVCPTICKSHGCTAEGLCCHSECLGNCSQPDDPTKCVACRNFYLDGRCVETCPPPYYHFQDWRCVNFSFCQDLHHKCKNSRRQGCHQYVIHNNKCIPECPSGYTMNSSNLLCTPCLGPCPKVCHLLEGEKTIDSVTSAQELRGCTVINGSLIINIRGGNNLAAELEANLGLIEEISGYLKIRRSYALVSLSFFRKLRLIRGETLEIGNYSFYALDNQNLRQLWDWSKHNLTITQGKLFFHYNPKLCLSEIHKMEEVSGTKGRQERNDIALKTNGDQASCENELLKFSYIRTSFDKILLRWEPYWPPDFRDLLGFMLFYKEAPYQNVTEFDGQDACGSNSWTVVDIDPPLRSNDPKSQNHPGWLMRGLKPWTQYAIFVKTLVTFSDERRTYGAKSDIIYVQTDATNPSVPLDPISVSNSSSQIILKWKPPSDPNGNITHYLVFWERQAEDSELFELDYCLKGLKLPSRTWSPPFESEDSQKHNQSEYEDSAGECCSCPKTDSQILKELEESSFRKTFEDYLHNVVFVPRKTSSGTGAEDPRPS
Insulin receptor (Homo sapiens), sequence (P06213 763-1382 limits assumed): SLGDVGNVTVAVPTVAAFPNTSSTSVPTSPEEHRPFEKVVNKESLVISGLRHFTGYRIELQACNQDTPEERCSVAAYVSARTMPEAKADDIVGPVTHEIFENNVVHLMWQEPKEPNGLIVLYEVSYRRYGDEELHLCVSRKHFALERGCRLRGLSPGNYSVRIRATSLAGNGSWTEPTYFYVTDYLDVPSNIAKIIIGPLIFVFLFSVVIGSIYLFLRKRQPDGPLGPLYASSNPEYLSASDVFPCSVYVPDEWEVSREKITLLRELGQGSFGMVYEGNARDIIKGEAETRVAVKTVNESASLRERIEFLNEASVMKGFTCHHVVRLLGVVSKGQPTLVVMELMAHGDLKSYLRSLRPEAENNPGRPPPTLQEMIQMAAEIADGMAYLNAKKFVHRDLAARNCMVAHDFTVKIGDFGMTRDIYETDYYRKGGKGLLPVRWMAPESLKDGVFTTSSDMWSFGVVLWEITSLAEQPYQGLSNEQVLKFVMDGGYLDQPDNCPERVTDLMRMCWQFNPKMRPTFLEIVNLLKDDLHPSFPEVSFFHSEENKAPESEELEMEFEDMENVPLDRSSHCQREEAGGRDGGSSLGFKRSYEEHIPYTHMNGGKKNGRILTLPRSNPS
Cyclin-dependent kinase 14 (Homo sapiens), sequence (O94921 whole entry): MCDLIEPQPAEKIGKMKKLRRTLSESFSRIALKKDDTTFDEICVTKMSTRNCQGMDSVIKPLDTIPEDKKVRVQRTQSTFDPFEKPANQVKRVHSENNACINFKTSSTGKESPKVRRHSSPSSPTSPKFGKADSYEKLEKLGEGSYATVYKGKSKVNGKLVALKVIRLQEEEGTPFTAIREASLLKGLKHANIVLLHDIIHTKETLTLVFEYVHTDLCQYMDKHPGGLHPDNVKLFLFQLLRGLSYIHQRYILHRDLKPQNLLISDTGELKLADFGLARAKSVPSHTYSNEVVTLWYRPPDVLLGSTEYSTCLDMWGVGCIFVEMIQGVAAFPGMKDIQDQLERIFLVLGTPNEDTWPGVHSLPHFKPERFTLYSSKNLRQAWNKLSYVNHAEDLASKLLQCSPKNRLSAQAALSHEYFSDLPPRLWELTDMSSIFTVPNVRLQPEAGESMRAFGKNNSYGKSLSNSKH
Ribosomal protein S6 kinase alpha-2 (Homo sapiens), sequence (Q15349 whole entry): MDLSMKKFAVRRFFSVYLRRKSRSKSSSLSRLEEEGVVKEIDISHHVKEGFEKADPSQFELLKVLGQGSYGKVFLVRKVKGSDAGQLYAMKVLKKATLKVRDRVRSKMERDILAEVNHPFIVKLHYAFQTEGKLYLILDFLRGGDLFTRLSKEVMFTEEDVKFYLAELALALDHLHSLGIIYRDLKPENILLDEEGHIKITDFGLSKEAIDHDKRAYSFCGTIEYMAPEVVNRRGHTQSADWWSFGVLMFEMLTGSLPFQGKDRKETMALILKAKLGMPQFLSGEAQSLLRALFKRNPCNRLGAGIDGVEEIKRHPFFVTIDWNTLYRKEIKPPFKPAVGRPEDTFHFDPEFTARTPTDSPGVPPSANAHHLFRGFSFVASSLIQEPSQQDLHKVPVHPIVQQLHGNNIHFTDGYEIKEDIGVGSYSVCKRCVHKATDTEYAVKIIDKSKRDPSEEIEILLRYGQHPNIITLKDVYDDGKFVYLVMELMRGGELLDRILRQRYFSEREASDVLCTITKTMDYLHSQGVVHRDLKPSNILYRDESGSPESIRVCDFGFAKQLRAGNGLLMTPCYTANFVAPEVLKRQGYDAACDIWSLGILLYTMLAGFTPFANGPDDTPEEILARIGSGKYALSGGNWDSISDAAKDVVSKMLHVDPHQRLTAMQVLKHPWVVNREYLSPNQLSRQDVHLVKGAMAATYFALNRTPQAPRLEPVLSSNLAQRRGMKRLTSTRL
Leukocyte tyrosine kinase receptor (Homo sapiens), sequence (P29376 whole entry, the tested form may be a part): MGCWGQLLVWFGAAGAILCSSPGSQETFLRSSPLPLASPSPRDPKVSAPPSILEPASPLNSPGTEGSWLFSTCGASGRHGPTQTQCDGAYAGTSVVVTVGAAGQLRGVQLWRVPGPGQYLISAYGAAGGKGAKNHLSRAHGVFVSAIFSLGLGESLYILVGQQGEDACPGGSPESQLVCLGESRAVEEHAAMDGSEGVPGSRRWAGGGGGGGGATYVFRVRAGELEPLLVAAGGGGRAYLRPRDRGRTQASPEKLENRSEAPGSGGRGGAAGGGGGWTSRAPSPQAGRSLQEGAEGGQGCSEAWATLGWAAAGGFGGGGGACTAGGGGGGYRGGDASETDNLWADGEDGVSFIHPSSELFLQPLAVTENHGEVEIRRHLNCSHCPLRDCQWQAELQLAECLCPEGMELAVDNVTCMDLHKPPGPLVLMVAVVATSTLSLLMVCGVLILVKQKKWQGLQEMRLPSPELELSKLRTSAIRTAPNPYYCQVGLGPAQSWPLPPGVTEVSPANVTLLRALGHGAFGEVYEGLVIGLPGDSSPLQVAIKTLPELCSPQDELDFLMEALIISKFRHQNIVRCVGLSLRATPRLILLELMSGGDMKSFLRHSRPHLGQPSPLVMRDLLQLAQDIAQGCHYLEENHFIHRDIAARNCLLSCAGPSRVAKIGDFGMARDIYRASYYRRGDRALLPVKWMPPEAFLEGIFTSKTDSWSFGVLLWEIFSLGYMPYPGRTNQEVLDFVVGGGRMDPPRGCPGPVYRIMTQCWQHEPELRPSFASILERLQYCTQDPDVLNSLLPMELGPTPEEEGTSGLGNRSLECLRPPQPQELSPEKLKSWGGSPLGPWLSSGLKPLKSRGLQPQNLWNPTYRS

SMILES: CN([C@@H]1CCc2c(CC(=O)O)c3ccccc3n2C1)S(=O)(=O)c1ccc(F)cc1 [MK-7246]
- residual activity [1]: 100%
- residual activity [2]: 79%
- residual activity [3]: 100%
- residual activity [4]: 85%
- residual activity [5]: 85%
- residual activity [6]: 91%
- residual activity [7]: 96%
- residual activity [8]: 100%
- residual activity [9]: 98%
- residual activity [10]: 100%
- residual activity [11]: 100%
- residual activity [12]: 94%
- residual activity [13]: 100%
- residual activity [14]: 100%
- residual activity [15]: 100%
- residual activity [16]: 100%
- residual activity [17]: 86%
- residual activity [18]: 100%
- residual activity [19]: 100%
- residual activity [20]: 100%
- residual activity [21]: 85%
- residual activity [22]: 100%
- residual activity [23]: 95%
- residual activity [24]: 100%
- residual activity [25]: 100%
- residual activity [26]: 92%
- residual activity [27]: 100%
- residual activity [28]: 99%
- residual activity [29]: 100%
- residual activity [30]: 100%
- residual activity [31]: 100%
- residual activity [32]: 100%
- residual activity [33]: 95%
- residual activity [34]: 100%
- residual activity [35]: 100%
- residual activity [36]: 100%
- residual activity [37]: 100%
- residual activity [38]: 100%
- residual activity [39]: 100%
- residual activity [40]: 100%
- residual activity [41]: 74%
- inhibition [42]: -1.51%
- residual activity [43]: 100%
- residual activity [44]: 100%
- residual activity [45]: 100%

SMILES: CN([C@@H]1CCc2c(CC(=O)O)c3cc(S(C)(=O)=O)ccc3n2C1)S(=O)(=O)c1ccc(F)cc1
- residual activity [1]: 100%
- residual activity [2]: 86%
- residual activity [3]: 78%
- residual activity [4]: 91%
- residual activity [5]: 100%
- residual activity [6]: 73%
- residual activity [7]: 89%
- residual activity [8]: 100%
- residual activity [9]: 93%
- residual activity [10]: 100%
- residual activity [11]: 100%
- residual activity [12]: 100%
- residual activity [13]: 89%
- residual activity [14]: 100%
- residual activity [15]: 100%
- residual activity [16]: 88%
- residual activity [17]: 81%
- residual activity [18]: 100%
- residual activity [19]: 91%
- residual activity [20]: 100%
- residual activity [21]: 70%
- residual activity [22]: 49%
- residual activity [23]: 91%
- residual activity [24]: 75%
- residual activity [25]: 100%
- residual activity [26]: 88%
- residual activity [27]: 100%
- residual activity [28]: 100%
- residual activity [29]: 100%
- residual activity [30]: 100%
- residual activity [31]: 100%
- residual activity [32]: 100%
- residual activity [33]: 100%
- residual activity [34]: 100%
- residual activity [35]: 100%
- residual activity [36]: 100%
- residual activity [37]: 100%
- residual activity [38]: 100%
- residual activity [39]: 100%
- residual activity [40]: 100%
- residual activity [41]: 93%
- inhibition [42]: 0.933%
- residual activity [43]: 94%
- residual activity [44]: 100%
- residual activity [45]: 93%
